Where two headings read alike, the source gives them in different places.
Experiments:
[1] = target: T1, HIV-1 integrase (wild-type IN) (Human immunodeficiency virus type 1 group M subtype B, UniProt P12497); experiment: biochemical
[2] = target: T1, HIV-1 integrase (wild-type IN); experiment: biochemical; remark: listed apart in the source
[3] = system: wild-type HIV-1 strain (strain LAI); experiment: Anti-HIV-1 activity in infected human PBMCs; type: cell-based; conditions: cytotoxicity versus anti-HIV activity
[4] = IC50 ST (strand transfer), wild-type IN 200 nM, 7.5 mM MnCl2
[5] = Actual ST pIC50, −log IC50 of strand transfer, used for 3D-QSAR

Compound	IC50 [1]	IC50 [2, 4]	further results
O=Cc1cc(Br)cc(C(=O)NCc2ccc(F)cc2)c1O [Compound 8, 5-Bromo-N-(4-fluorobenzyl)-3-formyl-2-hydroxybenzamide]	> 100 µM		
O=C(O)c1cccc(CCCc2ccccc2)c1O [Compound 9, 2-hydroxy-3-(3-phenylpropyl)benzoic acid]	91 µM	> 100 µM	
O=C(O)c1cc(Br)cc(C(=O)/C=C/c2c(Cl)ccc(Cl)c2Cl)c1O [Compound 25, 5-Bromo-2-hydroxy-3-[3-(2,3,6-trichlorophenyl)-acryloyl]benzoic acid]		< 3.7 µM	IC50 [2, 5]: 3.98 µM
O=C(O)c1cc(Cl)cc(C(=O)/C=C/c2ccc(Cl)cc2Cl)c1O [Compound 27, 5-Chloro-3-[3-(2,4-dichlorophenyl)-acryloyl]-2-hydroxybenzoic acid]		> 100 µM	
Cc1cc(C)cc(/C=C/C(=O)c2cc(Br)cc(C(=O)O)c2O)c1 [Compound 39, 5-Bromo-3-[3-(3,5-dimethylphenyl)-acryloyl]-2-hydroxybenzoic acid]	> 100 µM		
COc1ccc(/C=C/C(=O)c2cc(Br)cc(C(=O)O)c2O)c(Cl)c1OC [Compound 40, 5-Bromo-3-[3-(2-chloro-3,4-dimethoxyphenyl)-acryloyl]-2-hydroxybenzoic acid]	> 100 µM		
COc1cc(F)c(/C=C/C(=O)c2cc(Br)cc(C(=O)O)c2O)cc1OC [Compound 41, 5-Bromo-3-[3-(2-fluoro-4,5-dimethoxyphenyl)-acryloyl]-2-hydroxybenzoic acid]	> 100 µM		
COc1ccc2cc(C=CC(=O)c3cc(Br)cc(C(=O)O)c3O)ccc2c1 [Compound 48, 5-Bromo-2-hydroxy-3-[3-(6-methoxynaphthalen-2-yl)-acryloyl]benzoic acid]		54 ± 25 µM	IC50 [2, 5]: 55 µM
O=C(O)c1cc(Br)cc(C(=O)/C=C/c2ccc3sccc3c2)c1O [Compound 49, 3-(3-Benzo[b]thiophen-5-yl-acryloyl)-5-bromo-2-hydroxybenzoic acid]			Selectivity index [3]: up to 4 fold
O=C(O)c1cc(Br)cc(C(=O)/C=C/c2ccccc2-c2ccco2)c1O [Compound 50, 5-Bromo-3-[3-(2-furan-2-yl-phenyl)-acryloyl]-2-hydroxybenzoic acid]	> 100 µM		
O=C(O)c1cc(Br)cc(C(=O)/C=C/c2cccc(OC(F)(F)F)c2)c1O [Compound 52, 5-Bromo-2-hydroxy-3-[3-(3-trifluoromethoxyphenyl)-acryloyl]benzoic acid]	> 100 µM		
N#Cc1cc(Br)cc(C(=O)/C=C/c2c(Cl)ccc(Cl)c2Cl)c1O [Compound 56, 5-Bromo-2-hydroxy-3-[3-(2,3,6--trichlorophenyl)-acryloyl]benzonitrile]	> 100 µM		
Cc1cc(C(=O)O)c(O)c(C(=O)/C=C/c2c(Cl)ccc(Cl)c2Cl)c1 [Compound 57, 2-Hydroxy-5-methyl-3-[3-(2,3,6-trichlorophenyl)-acryloyl]benzoic acid]	> 100 µM		Times less active than corresponding Br-substituted compound 25 ([2]; ST inhibition, comparison with compound 25): 13 times
O=C(/C=C/c1cc(Cl)cc(Cl)c1Cl)c1cc(Br)cc([N+](=O)[O-])c1O [Compound 58, 1-(5-Bromo-2-hydroxy-3-nitrophenyl)-3-(2,3,5-trichlorophenyl)propenone]	> 333 µM	68 ± 5 µM	IC50 [2, 5]: 69.2 µM
O=C(/C=C/c1c(Cl)ccc(Cl)c1Cl)c1cc(Br)cc([N+](=O)[O-])c1O [Compound 59, 1-(5-Bromo-2-hydroxy-3-nitrophenyl)-3-(2,3,6-trichlorophenyl)propenone]	36 ± 4 µM	21 ± 3 µM	IC50 [2, 5]: 21.4 µM
O=C(O)c1cc(F)cc(C(=O)CCc2cc(Cl)ccc2Cl)c1O [Compound 60, 3-[3-(2,5-dichlorophenyl)propionyl]-5-fluoro-2-hydroxybenzoic acid]	> 100 µM		
O=C(O)c1cc(Br)cc(C(=O)NCc2ccc(F)cc2)c1O [Compound 61, 5-Bromo-N-(4-fluorobenzyl)-2-hydroxyisophthalamic acid]	> 100 µM		
Cc1cccc(C(=O)NCc2ccc(F)cc2)c1O [Compound 62, N-(4-Fluoro-benzyl)-2-hydroxy-3-methylbenzamide]		> 100 µM	
O=C(NCc1ccc(F)cc1)c1cc(Br)ccc1O [Compound 63, 5-Bromo-N-(4-fluoro-benzyl)-2-hydroxybenzamide]		> 100 µM	

— paper PMC3866048 (Bioorganic & medicinal chemistry, 2011)
